From patent publication US20250338857A1, “USE OF INTERFERING RNAS DIRECTED AGAINST THE CHOLINERGIC SYSTEM FOR CONTROLLING INSECT PESTS” (priority 2022, published 2025) come the findings set out here.

Molecules are shown by their SMILES. ≈ marks a conversion by molar mass, not a printed value.

One assay concerns aphid larvae. The experiment in a line: Imidacloprid concentration-effect mortality curve in aphid larvae (LC50). It counts as in vivo. Conditions: Acyrthosiphon pisum, artificial nutrition. The method, then:
Mortality tests were performed using an artificial nutrition system comprising a PVC tube closed by a Parafilm® at each end, in which 5 adult aphids or 20 larvae were deposited. At one of the ends of the artificial nutrition “cell”, 200 μL of nutrient solution comprising the solution to be tested (insecticide, dsRNA) were deposited on the Parafilm then covered with a 2nd Parafilm to allow the aphids to suck the solution for feeding by piercing the Parafilm with their rostrum. The cells were placed at 20° C. in a chamber with a photoperiod of 16 h. To determine the concentration of imidacloprid leading to 50% mortality (LC50) in the aphid larvae, a concentration-effect curve was plotted at 48 h and 72 h from a range of imidacloprid concentrations from 10^−6 to 10 μg/mL.
The mortality curves were obtained with GraphPad Prism software in the form of a non-linear regression and adjusted with the Hill equation,
[formula] • where Y is the percent mortality observed at the concentration value X, m and M are respectively the minimum and maximum values of the curve, nH is the Hill coefficient and LC50 is the concentration of imidacloprid causing 50% mortality. The results are expressed as a mean±S.E.M. Type of Effect of the dsRNAs

In assay [1] the test system is cockroach Periplaneta americana. In words: Mortality after acute imidacloprid intoxication in cockroaches exposed to a sublethal dose for 30 days. It counts as in vivo. The note with it: 0.025 μg/cockroach/day for 30 days, re-exposure 96 h.

A word on the LC50: it is the concentration lethal to half of the exposed cells or organisms. Low readings indicate greater toxicity, high ones lower toxicity.

In the case of `O=[N+]([O-])NC1=NCCN1Cc1ccc(Cl)nc1` [imidacloprid], the LC50 with aphid larvae (48 h) was 8 ng/mL (≈ 0.0313 µM); in the assay with aphid larvae (72 h), 4 ng/mL (≈ 0.0156 µM). Besides, the “effect of sublethal intoxication for 30 days on sensitivity of cockroaches to acute intoxication” value in assay [1] is “loss of sensitivity”.
